What was measured:
Test in all cases: Test B pre-/postemergence plant response
Type in all cases: in vivo
[1] = test system: Surinam grass (Brachiaria decumbens)
Summary of the method: (§1)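 Each species received compound formulated in non-phytotoxic solvent with surfactant, either at planting into a loam and sand blend or as a foliar spray once plants reached 2 to 18 cm in peat-based medium. Plants stayed in the greenhouse 13 to 15 days before visual evaluation against controls, scored 0 (no effect) to 100 (complete control).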

[2] = test system: blackgrass (Alopecurus myosuroides)
Summary of the method: as §1

[3] = test system: cocklebur (Xanthium strumarium)
Summary of the method: as §1

corn (Zea mays) = test system: corn (Zea mays)
Summary of the method: as §1

[4] = test system: downy bromegrass (Bromus tectorum)
Summary of the method: as §1

[5] = test system: giant foxtail (Setaria faberii)
Summary of the method: as §1

[6] = test system: goosegrass (Eleusine indica)
Summary of the method: as §1

[7] = test system: green foxtail (Setaria viridis)
Summary of the method: as §1

[8] = test system: johnsongrass (Sorghum halepense)
Summary of the method: as §1

kochia (Kochia scoparia) = test system: kochia (Kochia scoparia)
Summary of the method: as §1

[9] = test system: large crabgrass (Digitaria sanguinalis)
Summary of the method: as §1

[10] = test system: morningglory (Ipomoea coccinea)
Summary of the method: as §1

soybean (Glycine max) = test system: soybean (Glycine max)
Summary of the method: as §1

[11] = test system: velvetleaf (Abutilon theophrasti)
Summary of the method: as §1

wild oat (Avena fatua) = test system: wild oat (Avena fatua)
Summary of the method: as §1

[12] = test system: woolly cupgrass (Eriochloa villosa)
Summary of the method: as §1

[13] = test system: yellow nutsedge (Cyperus esculentus)
Summary of the method: as §1

[14] = 31 g ai/ha, postemergence, scale 0 to 100, 0 is no effect, 100 is complete control
[15] = Postemergence, 62 g ai/ha, scale 0 (no effect) to 100 (complete control), 13 to 15 days
[16] = Postemergence, 125 g ai/ha, visual rating after 13 to 15 days, scale 0 (no effect) to 100 (complete control)
[17] = Postemergence, 250 g ai/ha, scale 0 to 100 (0 no effect, 100 complete control)
[18] = Preemergence, 31 g ai/ha, scale 0 to 100 (0 no effect, 100 complete control)
[19] = Preemergence, 62 g ai/ha, scale 0 to 100, 0 no effect, 100 complete control
[20] = Preemergence, 125 g ai/ha, scale 0 to 100, 0 no effect, 100 complete control
[21] = 250 g ai/ha, Preemergence, 0 to 100 scale

## Cc1cccc(-n2c(-c3ccccc3)ncc(C(=O)C3=C(O)CCCC3=O)c2=O)c1F [Compound 58]
[1]; [14]
  Plant response rating, Surinam Grass: 70
[1]; [15]
  Plant response rating, Surinam Grass: 80
[1]; [16]
  Plant response rating, Surinam Grass: 95
[1]; [17]
  Plant response rating, Surinam Grass: 98
[1]; [18]
  Plant response rating, Surinam Grass: 40
[1]; [19]
  Plant response rating, Surinam Grass: 65
[1]; [20]
  Plant response rating, Surinam Grass: 85
[2]; [14]
  Plant response rating, Blackgrass: 5
[2]; [21]
  Plant response rating, Blackgrass: 30
[2]; [15]
  Plant response rating, Blackgrass: 10
[2]; [16]
  Plant response rating, Blackgrass: 20
[2]; [17]
  Plant response rating, Blackgrass: 40
[2]; [18]
  Plant response rating, Blackgrass: 0
[2]; [19]
  Plant response rating, Blackgrass: 0
[2]; [20]
  Plant response rating, Blackgrass: 5
[3]; [14]
  Plant response rating, Cocklebur: 85
[3]; [21]
  Plant response rating, Cocklebur: 65
[3]; [15]
  Plant response rating, Cocklebur: 85
[3]; [16]
  Plant response rating, Cocklebur: 85
[3]; [17]
  Plant response rating, Cocklebur: 90
[3]; [18]
  Plant response rating, Cocklebur: 0
[3]; [19]
  Plant response rating, Cocklebur: 0
[3]; [20]
  Plant response rating, Cocklebur: 10
Corn (Zea mays); [14]
  Plant response rating, Corn: 0
Corn (Zea mays); [21]
  Plant response rating, Corn: 0
Corn (Zea mays); [15]
  Plant response rating, Corn: 45
Corn (Zea mays); [16]
  Plant response rating, Corn: 65
Corn (Zea mays); [17]
  Plant response rating, Corn: 80
Corn (Zea mays); [18]
  Plant response rating, Corn: 0
Corn (Zea mays); [19]
  Plant response rating, Corn: 0
Corn (Zea mays); [20]
  Plant response rating, Corn: 0
[4]; [14]
  Plant response rating, Bromegrass, Downy: 40
[4]; [21]
  Plant response rating, Bromegrass, Downy: 0
[4]; [15]
  Plant response rating, Bromegrass, Downy: 40
[4]; [16]
  Plant response rating, Bromegrass, Downy: 45
[4]; [17]
  Plant response rating, Bromegrass, Downy: 50
[4]; [18]
  Plant response rating, Bromegrass, Downy: 0
[4]; [19]
  Plant response rating, Bromegrass, Downy: 0
[4]; [20]
  Plant response rating, Bromegrass, Downy: 0
[5]; [14]
  Plant response rating, Foxtail, Giant: 75
[5]; [21]
  Plant response rating, Foxtail, Giant: 75
[5]; [15]
  Plant response rating, Foxtail, Giant: 85
[5]; [16]
  Plant response rating, Foxtail, Giant: 90
[5]; [17]
  Plant response rating, Foxtail, Giant: 98
[5]; [18]
  Plant response rating, Foxtail, Giant: 10
[5]; [19]
  Plant response rating, Foxtail, Giant: 20
[5]; [20]
  Plant response rating, Foxtail, Giant: 75
[6]; [14]
  Plant response rating, Goosegrass: 70
[6]; [21]
  Plant response rating, Goosegrass: 100
[6]; [15]
  Plant response rating, Goosegrass: 75
[6]; [16]
  Plant response rating, Goosegrass: 85
[6]; [17]
  Plant response rating, Goosegrass: 90
[6]; [18]
  Plant response rating, Goosegrass: 95
[6]; [19]
  Plant response rating, Goosegrass: 98
[6]; [20]
  Plant response rating, Goosegrass: 100
[7]; [14]
  Plant response rating, Foxtail, Green: 75
[7]; [21]
  Plant response rating, Foxtail, Green: 100
[7]; [15]
  Plant response rating, Foxtail, Green: 90
[7]; [16]
  Plant response rating, Foxtail, Green: 98
[7]; [17]
  Plant response rating, Foxtail, Green: 100
[7]; [18]
  Plant response rating, Foxtail, Green: 0
[7]; [19]
  Plant response rating, Foxtail, Green: 5
[7]; [20]
  Plant response rating, Foxtail, Green: 70
[8]; [14]
  Plant response rating, Johnsongrass: 50
[8]; [21]
  Plant response rating, Johnsongrass: 85
[8]; [15]
  Plant response rating, Johnsongrass: 85
[8]; [16]
  Plant response rating, Johnsongrass: 98
[8]; [17]
  Plant response rating, Johnsongrass: 100
[8]; [18]
  Plant response rating, Johnsongrass: 10
[8]; [19]
  Plant response rating, Johnsongrass: 20
[8]; [20]
  Plant response rating, Johnsongrass: 80
Kochia (Kochia scoparia); [14]
  Plant response rating, Kochia: 0
Kochia (Kochia scoparia); [15]
  Plant response rating, Kochia: 10
Kochia (Kochia scoparia); [16]
  Plant response rating, Kochia: 25
Kochia (Kochia scoparia); [17]
  Plant response rating, Kochia: 25
[9]; [14]
  Plant response rating, Crabgrass, Large: 75
[9]; [21]
  Plant response rating, Crabgrass, Large: 100
[9]; [15]
  Plant response rating, Crabgrass, Large: 80
[9]; [16]
  Plant response rating, Crabgrass, Large: 90
[9]; [17]
  Plant response rating, Crabgrass, Large: 90
[9]; [18]
  Plant response rating, Crabgrass, Large: 95
[9]; [19]
  Plant response rating, Crabgrass, Large: 98
[9]; [20]
  Plant response rating, Crabgrass, Large: 98
[10]; [14]
  Plant response rating, Morningglory: 65
[10]; [15]
  Plant response rating, Morningglory: 80
[10]; [16]
  Plant response rating, Morningglory: 90
[10]; [17]
  Plant response rating, Morningglory: 90
[10]; [18]
  Plant response rating, Morningglory: 0
[10]; [19]
  Plant response rating, Morningglory: 0
[10]; [20]
  Plant response rating, Morningglory: 55
Soybean (Glycine max); [14]
  Plant response rating, Soybean: 85
Soybean (Glycine max); [15]
  Plant response rating, Soybean: 85
Soybean (Glycine max); [16]
  Plant response rating, Soybean: 95
Soybean (Glycine max); [17]
  Plant response rating, Soybean: 95
Soybean (Glycine max); [18]
  Plant response rating, Soybean: 10
Soybean (Glycine max); [20]
  Plant response rating, Soybean: 85
[11]; [14]
  Plant response rating, Velvetleaf: 75
[11]; [15]
  Plant response rating, Velvetleaf: 75
[11]; [16]
  Plant response rating, Velvetleaf: 85
[11]; [17]
  Plant response rating, Velvetleaf: 95
[11]; [18]
  Plant response rating, Velvetleaf: 75
[11]; [19]
  Plant response rating, Velvetleaf: 80
[11]; [20]
  Plant response rating, Velvetleaf: 95
Wild oat (Avena fatua); [14]
  Plant response rating, Oat, Wild: 45
Wild oat (Avena fatua); [15]
  Plant response rating, Oat, Wild: 60
Wild oat (Avena fatua); [16]
  Plant response rating, Oat, Wild: 60
Wild oat (Avena fatua); [17]
  Plant response rating, Oat, Wild: 85
Wild oat (Avena fatua); [18]
  Plant response rating, Oat, Wild: 0
Wild oat (Avena fatua); [19]
  Plant response rating, Oat, Wild: 0
Wild oat (Avena fatua); [20]
  Plant response rating, Oat, Wild: 0
[12]; [14]
  Plant response rating, Cupgrass, Woolly: 65
[12]; [21]
  Plant response rating, Cupgrass, Woolly: 85
[12]; [15]
  Plant response rating, Cupgrass, Woolly: 65
[12]; [16]
  Plant response rating, Cupgrass, Woolly: 70
[12]; [17]
  Plant response rating, Cupgrass, Woolly: 95
[12]; [18]
  Plant response rating, Cupgrass, Woolly: 10
[12]; [19]
  Plant response rating, Cupgrass, Woolly: 10
[12]; [20]
  Plant response rating, Cupgrass, Woolly: 20
[13]; [14]
  Plant response rating, Nutsedge, Yellow: 25
[13]; [15]
  Plant response rating, Nutsedge, Yellow: 40
[13]; [16]
  Plant response rating, Nutsedge, Yellow: 55
[13]; [17]
  Plant response rating, Nutsedge, Yellow: 75
[13]; [18]
  Plant response rating, Nutsedge, Yellow: 20
[13]; [19]
  Plant response rating, Nutsedge, Yellow: 75
[13]; [20]
  Plant response rating, Nutsedge, Yellow: 75

Source: patent US8952024B2, “Herbicidal pyrimidone derivatives” (E I du Pont de Nemours and Company, priority 2009, dated 2015)
